Measurements from paper PMC10053440, “Semi-Synthesis and Biological Evaluation of 25(R)-26-Acetoxy-3β,5α-Dihydroxycholest-6-One” (Marine Drugs, 2023).

Experiments:
[1] = system: DU145 (human prostate carcinoma cell); test: CCK-8 anti-proliferation assay, DU145; type: cell-based; settings: 48 h, mean ± SEM, read-out: Inhibition Rate (%); for inhibition at 20 µM: DU-145, at 20 µM
Protocol: (§1) One concentration was set for each sample during preliminary screening and three multiple holes were set for each concentration. Eight concentration gradients were set for each sample for IC50 determination and three multiple holes were set for each concentration. […] The absorbance was measured at 450 nm with an enzyme labeling instrument and the original data and results were recorded. […] Doxorubicin was used as a positive control. All the cancer cell lines were obtained from Qingdao AC biotechnology Co., LTD, Qingdao, China.

[2] = system: HepG2 (human liver carcinoma cell); test: CCK-8 anti-proliferation assay, HepG2; type: cell-based; settings: for IC50: CCK-8, 48 h, read-out: IC50 against HepG2 cells
Protocol: as §1

A-673 (Ewing sarcoma) = test: CCK-8 anti-proliferation assay, A-673; type: cell-based; settings: Homo sapiens, 48 h, mean ± SEM, read-out: Inhibition Rate (%); for inhibition at 20 µM: A673, at 20 µM
Protocol: as §1

[3] = system: HCT 116 (human colorectal cancer cell); test: CCK-8 anti-proliferation assay, HCT 116; type: cell-based; settings: 48 h, mean ± SEM, read-out: Inhibition Rate (%)
Protocol: as §1

[4] = system: 786-O (human renal cancer cell); test: CCK-8 anti-proliferation assay, 786-O; type: cell-based; settings: 48 h, mean ± SEM, read-out: Inhibition Rate (%); for inhibition at 20 µM: 786-0, at 20 µM
Protocol: as §1

[5] = system: A549 (human lung adenocarcinoma cell); test: CCK-8 anti-proliferation assay, A549; type: cell-based; settings: A549, 48 h, mean ± SEM, read-out: Inhibition Rate (%)
Protocol: as §1

[6] = system: MCF7 (human breast cancer cell); test: CCK-8 anti-proliferation assay, MCF7; type: cell-based; settings: 48 h, mean ± SEM, read-out: Inhibition Rate (%)
Protocol: as §1

[7] = system: A-375 (human melanoma cell); test: CCK-8 anti-proliferation assay, A-375; type: cell-based; settings: 48 h, mean ± SEM, read-out: Inhibition Rate (%)
Protocol: as §1

[8] = system: 5637 (HTB-9) (human bladder cancer cell); test: CCK-8 anti-proliferation assay, 5637 (HTB-9); type: cell-based; settings: for IC50: CCK-8, 48 h, read-out: IC50 against 5637 (HTB-9) cells
Protocol: as §1

[9] = system: PATU8988T (human pancreatic cancer cell); test: CCK-8 anti-proliferation assay, PATU8988T; type: cell-based; settings: PaTu 8988t, 48 h, mean ± SEM, read-out: Inhibition Rate (%)
Protocol: as §1

[10] = system: K-562 (human myeloid leukemia cell); test: CCK-8 anti-proliferation assay, K-562; type: cell-based; settings: 48 h, mean ± SEM; for inhibition at 20 µM: K562, at 20 µM; for Inhibition Rate (%): at 20 µM
Protocol: as §1

[11] = system: 293T (human embryonic kidney cell); test: CCK-8 anti-proliferation assay, 293T; type: cell-based; settings: HEK-293T, 48 h, mean ± SEM, read-out: Inhibition Rate (%)
Protocol: as §1

[12] = system: HOS (human osteosarcoma cell); test: CCK-8 anti-proliferation assay, HOS; type: cell-based; settings: 48 h, mean ± SEM, read-out: Inhibition Rate (%)
Protocol: as §1

[13] = system: CAL-62 (human thyroid anaplastic carcinoma cell); test: CCK-8 anti-proliferation assay, CAL-62; type: cell-based; settings: 48 h, mean ± SEM, read-out: Inhibition Rate (%)
Protocol: as §1

[14] = system: MKN-45 (human gastric cancer cell); test: CCK-8 anti-proliferation assay, MKN-45; type: cell-based; settings: 48 h, mean ± SEM, read-out: Inhibition Rate (%)
Protocol: as §1

[15] = system: TE-1 (human esophageal cancer cell); test: CCK-8 anti-proliferation assay, TE-1; type: cell-based; settings: 48 h, mean ± SEM, read-out: Inhibition Rate (%)
Protocol: as §1

[16] = system: SF126 (human glioblastoma cell); test: CCK-8 anti-proliferation assay, SF126; type: cell-based; settings: 48 h, mean ± SEM, read-out: Inhibition Rate (%); for inhibition at 20 µM: SF-126, at 20 µM
Protocol: as §1

[17] = system: GBC-SD (human gallbladder carcinoma cell); test: CCK-8 anti-proliferation assay, GBC-SD; type: cell-based; settings: 48 h, mean ± SEM, read-out: Inhibition Rate (%)
Protocol: as §1

[18] = system: HeLa (human cervical cancer cell); test: CCK-8 anti-proliferation assay, HeLa; type: cell-based; settings: 48 h, mean ± SEM, read-out: Inhibition Rate (%)
Protocol: as §1

[19] = system: L-02 (human hepatocyte cell); test: CCK-8 anti-proliferation assay, L-02; type: cell-based; settings: L-02 normal liver cells, 48 h, mean ± SEM, read-out: Inhibition Rate (%)
Protocol: as §1

[20] = system: respiratory syncytial virus (RSV); design: method as in PMID 24882250; settings: read-out: anti-RSV IC50; cited from earlier work
[21] = system: respiratory syncytial virus (RSV); test: Anti-RSV activity assay (RT-qPCR); type: cell-based; settings: human respiratory syncytial virus, HEp-2 cells, mean ± SEM, read-out: Inhibition rate (%) of RSV replication
From the text: Remdesivir was selected and evaluated as a positive control.

[22] = 48 h, mean ± SEM, read-out: Inhibition Rate (%)
[23] = 5637 (HTB-9), 48 h, mean ± SEM, read-out: Inhibition Rate (%)
[24] = Homo sapiens, read-out: Inhibition Rate (%)

| Compound | IC50 [20] [µM] | inhibition at 10 µM [21] [%] | inhibition at 20 µM [1] [%] | inhibition at 20 µM [2, 22] [%] | inhibition at 20 µM (A-673 (Ewing sarcoma)) [%] | inhibition at 20 µM [3] [%] | inhibition at 20 µM [4] [%] | inhibition at 20 µM [6] [%] | inhibition at 20 µM [7] [%] | inhibition at 20 µM [8, 23] [%] | inhibition at 20 µM [9] [%] | inhibition at 20 µM [10, 24] [%] | Inhibition Rate (%) [10] | inhibition at 20 µM [11] [%] | inhibition at 20 µM [12] [%] | inhibition at 20 µM [13] [%] | inhibition at 20 µM [14] [%] | inhibition at 20 µM [15] [%] | inhibition at 20 µM [16] [%] | inhibition at 20 µM [17] [%] | also measured |
| --- | --- | --- | --- | --- | --- | --- | --- | --- | --- | --- | --- | --- | --- | --- | --- | --- | --- | --- | --- | --- | --- |
| COc1cccc2c1C(=O)c1c(O)c3c(c(O)c1C2=O)C[C@@](O)(C(=O)CO)C[C@@H]3O[C@H]1C[C@H](N)[C@H](O)[C@H](C)O1 [Doxorubicin, reference compound] | – | – | – | – | – | – | – | – | – | – | – | – | – | – | – | – | – | – | – | – | inhibition at 10 µM ([1]; DU-145, at 10 µM): 76.4 ± 1.6%; inhibition at 10 µM ([2]; at 10 µM, 48 h, mean ± SEM, read-out: Inhibition Rate (%)): 95.9 ± 1.9%; inhibition at 10 µM (A-673 (Ewing sarcoma); A673, at 10 µM): 98.7 ± 0.6%; inhibition at 10 µM ([3]; at 10 µM): 88.9 ± 1.5%; inhibition at 10 µM ([4]; 786-0, at 10 µM): 86.3 ± 1.9%; inhibition at 10 µM ([5]; at 10 µM): 75.9 ± 2.5%; inhibition at 10 µM ([6]; at 10 µM): 55.9 ± 1.7%; inhibition at 10 µM ([7]; at 10 µM): 95.3 ± 1%; inhibition at 10 µM ([8]; 5637 (HTB-9), at 10 µM, 48 h, mean ± SEM, read-out: Inhibition Rate (%)): 99.3 ± 0.3%; inhibition at 10 µM ([9]; at 10 µM): 98.4 ± 0.6%; inhibition at 10 µM ([10]; Homo sapiens, K562, at 10 µM, read-out: Inhibition Rate (%)): 67.5 ± 1%; inhibition at 10 µM ([11]; at 10 µM): 88.2 ± 1.2%; inhibition at 10 µM ([12]; at 10 µM): 98.4 ± 0.9%; inhibition at 10 µM ([13]; at 10 µM): 92.6 ± 1.3%; inhibition at 10 µM ([14]; at 10 µM): 89.8 ± 0.5%; inhibition at 10 µM ([15]; at 10 µM): 83.3 ± 1.1%; inhibition at 10 µM ([16]; SF-126, at 10 µM): 97.1 ± 1%; inhibition at 10 µM ([17]; at 10 µM): 76.7 ± 1.5%; inhibition at 10 µM ([18]; at 10 µM): 97.7 ± 0.4%; inhibition at 10 µM ([19]; at 10 µM): 99.2 ± 0.1% |
| CC(=O)OC[C@@H](C)[C@H](C)/C=C/[C@@H](C)[C@H]1CC[C@H]2[C@@H]3CC(=O)[C@@]4(O)C[C@@H](O)CC[C@]4(C)[C@H]3CC[C@]12C [compound 2] | 0.19 | – | – | – | – | – | – | – | – | – | – | – | – | – | – | – | – | – | – | – | – |
| CC(=O)OCC(C)/C=C/[C@@H](C)[C@H]1CC[C@H]2[C@@H]3CC(=O)[C@@]4(O)C[C@@H](O)CC[C@]4(C)[C@H]3CC[C@]12C (some centres unmarked) [compound 4] | 3.23 | – | – | – | – | – | – | – | – | – | – | – | – | – | – | – | – | – | – | – | – |
| CC(=O)OC[C@@H](C)C/C=C/[C@@H](C)[C@H]1CC[C@H]2[C@@H]3CC(=O)[C@@]4(O)C[C@@H](O)CC[C@]4(C)[C@H]3CC[C@]12C [compound 1] | 0.78 | – | – | – | – | – | – | – | – | – | – | – | – | – | – | – | – | – | – | – | – |
| CCC(CC)COC(=O)[C@H](C)N[P@](=O)(OC[C@H]1O[C@@](C#N)(c2ccc3c(N)ncnn23)[C@H](O)[C@@H]1O)Oc1ccccc1 [Remdesivir, reference compound] | – | 91.8 ± 0.5 | – | – | – | – | – | – | – | – | – | – | – | – | – | – | – | – | – | – | – |
| CC(=O)OC[C@H](C)CCC[C@@H](C)[C@H]1CC[C@H]2[C@@H]3C[C@@H](O)[C@@]4(O)C[C@@H](O)CC[C@]4(C)[C@H]3CC[C@]12C [compound 13, (2R,6R)-2-Methyl-6-((3S,5R,6R,8S,9S,10R,13R,14S,17R)-3,5,6-Trihydroxy-10,13-Dimethylhexadecahydro-1H-Cyclopenta[a]Phenanthren-17-yl) Heptyl Acetate] | – | 13.6 ± 2.1 | -0.4 ± 3.9 | 58 ± 1.2 | 66.3 ± 3.2 | 19.3 ± 1.2 | 20.5 ± 1.3 | 19 ± 1.1 | 54.8 ± 1.7 | 52.2 ± 4.5 | 53.6 ± 1.7 | 7.8 ± 2.3 | did not exhibit any anti-proliferative activities | 37.3 ± 2.7 | 52.6 ± 1.5 | 7.5 ± 2.7 | 52.7 ± 2.4 | 13.5 ± 2.6 | 4.7 ± 1.3 | 6 ± 2.4 | melting point: 201 to 202 °C; inhibition at 20 µM [18]: -2.3 ± 1.7%; inhibition at 20 µM [19]: 6.3 ± 3.2% |
| C[C@@H](CO)CCC[C@@H](C)[C@H]1[C@@H](O)C[C@H]2[C@@H]3CC=C4C[C@@H](O)CC[C@]4(C)[C@H]3CC[C@]12C [compound 8, (3S,8S,9S,10R,13S,14S,16S,17R)-17-((2R,6R)-7-Hydroxy-6-Methylheptan-2-yl)-10,13-Dimethyl-2,3,4,7,8,9,10,11,12,13,14,15,16,17-Tetradecahydro-1H-Cyclopenta[a]Phenanthrene-3,16-diol] | – | 24.9 ± 2.6 | 26 ± 1.7 | 76.8 ± 1.3 | 51.9 ± 2.8 | 61.7 ± 2.1 | 69 ± 1.8 | 31.2 ± 1.4 | 72.3 ± 0.6 | 75.1 ± 0.8 | 62.7 ± 2 | 7.2 ± 2.2 | did not exhibit any anti-proliferative activities | 42.4 ± 2.1 | 2.7 ± 4 | 28 ± 4 | 54.4 ± 1.9 | 34 ± 3.8 | 30.7 ± 2.4 | 26.8 ± 1.3 | IC50 [2]: 12 µM; inhibition at 20 µM [5]: 53 ± 2.7%; IC50 [8]: 5.8 µM; inhibition at 20 µM [18]: 49.7 ± 3.6%; inhibition at 20 µM [19]: 8.1 ± 1.3% |
| CC(=O)OC[C@H](C)[C@H](C)/C=C/[C@@H](C)[C@H]1CC[C@H]2[C@@H]3CC(=O)[C@@]4(O)C[C@@H](O)CC[C@]4(C)[C@H]3CC[C@]12C [compound 3] | 0.19 | – | – | – | – | – | – | – | – | – | – | – | – | – | – | – | – | – | – | – | – |
| C[C@@H](CO)CCC[C@@H](C)[C@H]1CC[C@H]2[C@@H]3CC=C4C[C@@H](O)CC[C@]4(C)[C@H]3CC[C@]12C [compound 11, (3S,8S,9S,10R,13R,14S,17R)-17-((2R,6R)-7-Hydroxy-6-Methylheptan-2-yl)-10,13-Dimethyl-2,3,4,7,8,9,10,11,12,13,14,15,16,17-Tetradecahydro-1H-Cyclopenta[a]Phenanthren-3-ol] | – | 22.2 ± 3.9 | 18.4 ± 3.7 | 64.2 ± 2.5 | 26.5 ± 2.1 | 19.8 ± 1.4 | 65.9 ± 2.4 | 14.1 ± 0.5 | 60.8 ± 1.4 | 80.5 ± 2.5 | 63.3 ± 4.2 | 13.1 ± 1.8 | did not exhibit any anti-proliferative activities | -18.2 ± 1.3 | 9.3 ± 4.3 | 12.5 ± 3.9 | 53.8 ± 1.6 | 27.7 ± 0.6 | 11.7 ± 2.9 | 10.4 ± 3.3 | IC50 [2]: 5.6 µM; inhibition at 20 µM [5]: ≤ 50%; IC50 [8]: 3 µM; inhibition at 20 µM [18]: 14.9 ± 2.2%; inhibition at 20 µM [19]: 2.8 ± 2.1% |
